Here are results for twelve molecules from publication PMC7859335, “Discovery of Diaryl Ether Substituted Tetrahydrophthalazinones as TbrPDEB1 Inhibitors Following Structure-Based Virtual Screening” (Frontiers in Chemistry, 2021).

Broadly, the Ki is the dissociation constant of the complex between target and ligand, obtained from inhibition or displacement. One may read the IC50 as the concentration that gives 50% inhibition. The CC50 is the concentration giving 50% cytotoxicity.

Series [1] deals with T1, TbrPDEB1 (Trypanosoma brucei, UniProt Q8WQX9).
T1 construct: The TbrPDEB1 catalytic domain phosphodiesterase activity assays were conducted based on a method reported by Sijm et al
T1 sequence (Q8WQX9 565-918 limits assumed): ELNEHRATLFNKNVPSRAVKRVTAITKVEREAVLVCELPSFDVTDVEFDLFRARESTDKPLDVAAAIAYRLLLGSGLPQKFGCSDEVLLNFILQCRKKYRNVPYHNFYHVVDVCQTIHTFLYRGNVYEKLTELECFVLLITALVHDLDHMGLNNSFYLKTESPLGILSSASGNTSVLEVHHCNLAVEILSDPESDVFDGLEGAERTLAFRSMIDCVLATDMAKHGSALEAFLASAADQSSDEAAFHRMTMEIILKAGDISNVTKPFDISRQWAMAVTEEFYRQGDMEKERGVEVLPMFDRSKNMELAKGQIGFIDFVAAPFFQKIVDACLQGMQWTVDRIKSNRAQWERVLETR
Kind of series: TbrPDEB1 catalytic domain phosphodiesterase activity assay (PDELight HTS cAMP kit). The following applies: for Ki: full dose-response, mean ± S.E.M.; for inhibition at 10 µM / TbrPDEB1 (% inh.): single point assay at 10 μM inhibitor; for inhibition at 10 µM: read-out: TbrPDEB1 (% inh.). It counts as biochemical. The procedure: The TbrPDEB1 catalytic domain phosphodiesterase activity assays were conducted based on a method reported by Sijm et al. ([2019]) with minor adaptations (Sijm et al., [2019]). The PDELight™ HTS cAMP phosphodiesterase Kit (Lonza, Walkersville, USA) was performed at 25°C in non-binding, low volume 384-well plates (Corning, Kennebunk, ME, USA). […] Single concentration measurements were made at 10 μM inhibitor concentration (triplo measurements/assay, n = 2). Dose-response curves were made in the range 100 μM−10 pM (triplo measurements/assay, n = 3). Compounds were diluted in DMSO (final in-test concentration 1%). Inhibitor dilutions (2.5 μL) were transferred to the 384-well plates, 2.5 μL of PDE in stimulation buffer was added and mixed, 5 μL of cAMP (at 2 × Km up to 20 μM) added and the assay mixture was incubated for 20 min at 300 rpm. […] Then, 5 μL of Lonza Detection reagent (diluted to 80% with reaction buffer) was added and the reaction incubated for 10 min at 300 rpm. Luminescence was read with a Victor3 luminometer using a 0.1 s/well program.
The Ki values of the inhibitors analyzed are represented as the mean of at least three independent experiments with the associated standard error of the mean (S.E.M.).

Series [2] relates to T.b. brucei Squib-427 strain. The series can be described thus: Antitrypanosomal phenotypic cellular assay (resazurin). It counts as cell-based. To be noted: Trypanosoma brucei; in vitro, 72 h, mean ± S.E.M. Here is the method: (§1) The phenotypic cellular assays were conducted as previously reported by Blaazer et al. (Blaazer et al., [2018]).
For the antitrypanosomal assay, T.b. brucei Squib-427 strain (suramin-sensitive) was cultured at 37°C and 5% CO2 in HMI-9 medium supplemented with 10% fetal calf serum (FCS). Approximately 1.5 × 10^4 trypomastigotes were added to each well and parasite growth was assessed after 72 h at 37°C by adding resazurin. Viability was assessed fluorimetrically 24 h after addition of resazurin. Fluorescence was measured (excitation 550 nm, emission 590 nm) and the results were expressed as percentage reduction in viability compared to control.
(In general: Alamar Blue is a resazurin reagent that responds to reducing activity.)

Series [3] is described as follows: Cellular cytotoxicity assay (resazurin). It counts as cell-based. To be noted: human. Here is the method: as §1
For the cellular cytotoxicity assay, MRC-5 SV2 cells, originally from a human diploid lung cell line, were cultivated in MEM supplemented with L-glutamine (20 mM), 16.5 mM sodium hydrogen carbonate and 5% FCS. For the assay, 10^4 MRC-5 cells/well were seeded onto the test plates containing the pre-diluted sample and incubated at 37°C and 5% CO2 for 72 h. Cell viability was assessed fluorimetrically 4 h after the addition of resazurin. Fluorescence was measured (excitation 550 nm, emission 590 nm) and the results were expressed as percentage reduction in cell viability compared to controls.

The subject of series [4] is T.b. brucei Squib-427 strain. Set-up: method as in Blaazer et al. (2018). The following applies: in vitro; ref Blaazer et al. (2018); cited from earlier work.
The subject of a further series is MRC-5 SV2 cells. Set-up: method as in Blaazer et al. (2018). To be noted: ref Blaazer et al. (2018); cited from earlier work.
In the next series the test system is hPDE4B1. Further details: method as in Blaazer et al. (2018). To be noted: ref Blaazer et al. (2018), cited from earlier work.
Series [5] addresses T1, TbrPDEB1. The following applies: ref Blaazer et al. (2018); cited from earlier work.
The subject of another series is TbrPDEB2. Set-up: method as in earlier work. The following applies: ref De Koning et al., 2012, Orrling et al., Veerman et al., 2016; cited from earlier work.

Like-named read-outs stand apart in the source and are kept apart here.

`COc1ccc(C2=NN(C(C)C)C(=O)[C@@H]3CC=CC[C@H]23)cc1Oc1cccc(C(=O)NCc2ccco2)n1` (relative stereo) [3w, N-(Furan-2-ylmethyl)-6-(5-(cis-3-isopropyl-4-oxo-3,4,4a,5,8,8a-hexahydrophthalazin-1-yl)-2-methoxyphenoxy)picolinamide]: at TbrPDEB1 [1], the Ki was 1 ± 0.2 µM and the inhibition at 10 µM was > 50%. For the same molecule, in series [2], the IC50 is 25 ± 20 µM. The CC50 at 72 h in series [3] is > 64 µM.

Take `COc1ccc(C2=NN(C(C)C)C(=O)C3CC=CCC23)cc1-c1ccc(C(=O)NCC(N)=O)cc1` (stereo not shown) [compound 1]: in series [4], the concentration for half-maximal inhibition (IC50) was 6.3 µM. In addition, the 50% cytotoxic concentration (CC50) with MRC-5 SV2 cells is 35 µM. The “selectivity for TbrPDEB1 over hPDE4” value in the series with hPDE4B1 (from Ki values) was “more than 10 fold”. The Ki on hPDE4B1 (hPDE4B1 in Figure 1, read-out: hPDE4 Ki) was 1.9 µM; on TbrPDEB1 [5] it was 0.1 µM.

As for `COc1ccc(C2=NN(C(C)C)C(=O)[C@@H]3CC=CC[C@H]23)cc1Oc1cccc(C(N)=O)n1` (relative stereo) [3l, 6-(5-(cis-3-Isopropyl-4-oxo-3,4,4a,5,8,8a-hexahydrophthalazin-1-yl)-2-methoxyphenoxy)picolinamide], on TbrPDEB1 [1], the affinity, expressed as Ki, was 0.8 ± 0.2 µM and the inhibition at 10 µM is ≥ 50%. This molecule gave a 50% inhibitory concentration (IC50) in series [2] of 16 ± 10 µM. Moreover, the CC50 at 72 h in series [3] was > 64 µM.

For the molecule `CCCCNC(=O)c1cccc(Oc2cc(C3=NN(C(C)C)C(=O)[C@@H]4CC=CC[C@H]34)ccc2OC)n1` (relative stereo) [3s, N-Butyl-6-(5-(cis-3-isopropyl-4-oxo-3,4,4a,5,8,8a-hexahydrophthalazin-1-yl)-2-methoxyphenoxy)picolinamide], on TbrPDEB1 [1], the Ki is 1.3 ± 0.3 µM and the inhibition at 10 µM is > 50%. Besides, the IC50 in series [2] is > 64 µM. The CC50 at 72 h in series [3] is > 64 µM.

For `COc1ccc(C2=NN(C3CCCCCC3)C(=O)[C@@H]3CC=CC[C@H]23)cc1OCCCCOc1ccc(-c2nn[nH]n2)cc1` [NPD-001], the concentration for half-maximal inhibition (IC50) in the series on TbrPDEB2 is 0.0124 µM.

As to `Cc1ccc(C(=O)Nc2ccc(S(=O)(=O)O)c3cc(S(=O)(=O)O)cc(S(=O)(=O)O)c23)cc1NC(=O)c1cccc(NC(=O)Nc2cccc(C(=O)Nc3cc(C(=O)Nc4ccc(S(=O)(=O)O)c5cc(S(=O)(=O)O)cc(S(=O)(=O)O)c45)ccc3C)c2)c1` [suramin, reference compound], in series [2], inhibition was half-maximal at 0.04 ± 0.02 µM (IC50).

Turning to `COc1ccc(C2=NN(C(C)C)C(=O)[C@@H]3CC=CC[C@H]23)cc1Oc1ccc(C(=O)O)cn1` (relative stereo) [3g, 6-(5-(cis-3-Isopropyl-4-oxo-3,4,4a,5,8,8a-hexahydrophthalazin-1-yl)-2-methoxyphenoxy)nicotinic acid], on TbrPDEB1 [1], the inhibition at 10 µM is 11 ± 6%.

Turning to `COc1ccc(C2=NN(C(C)C)C(=O)[C@H]3CC=CC[C@@H]23)cc1Oc1ccc(Cn2ccnc2)cn1` (relative stereo) [2h, cis-4-(3-((5-((1H-Imidazol-1-yl)methyl)pyridin-2-yl)oxy)-4-methoxyphenyl)-2-isopropyl-4a,5,8,8a-tetrahydrophthalazin-1(2H)-one], at TbrPDEB1 [1], the Ki turned out to be 1.3 ± 0.2 µM and the inhibition at 10 µM was ~50%. The same molecule showed an IC50 in series [2] of 7.9 ± 8 µM. Also, in series [3], the CC50 at 72 h was 31 ± 8 µM.

On to `COC(=O)c1ccc(Oc2cc(C3=NN(C(C)C)C(=O)[C@@H]4CC=CC[C@H]34)ccc2OC)nc1` (relative stereo) [3c, Methyl 6-(5-(cis-3-isopropyl-4-oxo-3,4,4a,5,8,8a-hexahydrophthalazin-1-yl)-2-methoxyphenoxy)nicotinate], for which, at TbrPDEB1 [1], the affinity, expressed as Ki, was 0.8 ± 0.2 µM and the inhibition at 10 µM was ≥ 50%. This molecule also displayed an IC50 in series [2] of 7.9 ± 8 µM. Further, the CC50 at 72 h in series [3] was > 64 µM.

Turning to `COC(=O)c1cnc(Oc2cc(C3=NN(C(C)C)C(=O)[C@@H]4CC=CC[C@H]34)ccc2OC)cn1` (relative stereo) [2d, Methyl 5-(5-(cis-3-isopropyl-4-oxo-3,4,4a,5,8,8a-hexahydrophthalazin-1-yl)-2-methoxyphenoxy)pyrazine-2-carboxylate], at TbrPDEB1 [1], the Ki turned out to be 0.6 ± 0.2 µM and the inhibition at 10 µM is ~50%. For the same molecule, it took 16 ± 10 µM to reach half-maximal inhibition in series [2] (IC50). Further, the CC50 at 72 h in series [3] is > 64 µM.

Turning to `COc1ccc(C2=NN(C(C)C)C(=O)[C@@H]3CC=CC[C@H]23)cc1Oc1ncccc1C(=O)O` (relative stereo) [3e, 2-(5-(cis-3-Isopropyl-4-oxo-3,4,4a,5,8,8a-hexahydrophthalazin-1-yl)-2-methoxyphenoxy)nicotinic acid], on TbrPDEB1 [1], the “TbrPDEB1 (% inh.)” value is “No inhibition”.

Regarding `COc1ccc(C2=NN(C(C)C)C(=O)[C@H]3CC=CC[C@@H]23)cc1Oc1nccn2cnnc12` (relative stereo) [2l, cis-4-(3-([1,2,4]Triazolo[4,3-a]pyrazin-8-yloxy)-4-methoxyphenyl)-2-isopropyl-4a,5,8,8a-tetrahydrophthalazin-1(2H)-one], at TbrPDEB1 [1], the “TbrPDEB1 (% inh.)” value is “No inhibition”.
